The results in this text go back to patent publication US20230382894A1, “CCR4 ANTAGONISTS” (CHEMOCENTRYX, INC., priority 2022, published 2023).

For orientation: pIC50 means −log10 of the IC50, conventionally taken in molar units.

Molecules are shown by their SMILES. pIC50: −log10 of the molar value.

This test addresses T1, CCR4 (Homo sapiens, UniProt P51679).
T1 construct: CEM Cells Endogenous Express CCR4; endogenous in cells; host or cells: CEM cells
T1 sequence (P51679 1-360): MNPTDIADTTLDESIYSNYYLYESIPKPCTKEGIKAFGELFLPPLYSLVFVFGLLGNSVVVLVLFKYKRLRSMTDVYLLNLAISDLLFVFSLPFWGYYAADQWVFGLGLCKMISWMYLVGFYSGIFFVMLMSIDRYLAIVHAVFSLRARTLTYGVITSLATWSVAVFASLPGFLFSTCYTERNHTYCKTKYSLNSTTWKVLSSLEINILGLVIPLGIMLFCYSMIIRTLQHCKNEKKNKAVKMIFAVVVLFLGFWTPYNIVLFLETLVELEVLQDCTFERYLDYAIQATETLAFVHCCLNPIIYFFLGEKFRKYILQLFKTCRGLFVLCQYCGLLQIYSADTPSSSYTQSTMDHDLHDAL
In words: CEM cell chemotaxis (migration) assay to CCL22 (MDC) in 100% Fetal Bovine Serum (FBS). Type of test: cell-based. As to conditions: CEM cells in 100% FBS with 1% HEPEs; recombinant human CCL22 0.1 nM; 37° C. 60 minutes. The source says:
CEM Cells Endogenous Express CCR4
A chemotaxis assay can be used to determine the efficacy of potential receptor antagonists at blocking the migration mediated through chemokine receptors, such as CCR4. This assay is routinely performed using the ChemoTX® microchamber system with a 5 μm pore-sized polycarbonate membrane.
FBS: CEM Cells are collected by centrifugation at 400×g at room temperature, then suspended at 5 million/ml in 100% Fetal Bovine Serum (FBS) with 1% HEPEs. The compound being tested is serially diluted from a maximum final concentration of 10 μM (or an equivalent volume of its solvent (DMSO)) and is then added to the cell/buffer mixture. Separately, recombinant human CCL22 (MDC) at its EC50 concentration (0.1 nM) is placed in the lower wells of the ChemoTX® plate. The 5-μm (pore size) polycarbonate membrane was placed onto the plate, and 20 μL of the cell/compound mixture is transferred onto each well of the membrane. The plates are incubated at 37° C. for 60 minutes, after which the polycarbonate membranes are removed and 5 μl of the DNA-intercalating dye CyQUANT (Invitrogen, Carlsbad, CA) is added to the lower wells. The amount of fluorescence, corresponding to the number of migrated cells, is measured using a Spectrafluor Plus plate reader (TECAN, San Jose, CA).
`C[C@@H](Nc1nc(N2CC[C@H](NC(=O)[C@H]3CCC(=O)N3)[C@@H](O)C2)ncc1Cl)c1ccc(Cl)cc1Cl` [Example 1.093]: the pIC50 was 6.00 to 7.00.
As for `C[C@@H](Nc1nc(N2CC[C@@H](NC(=O)[C@H]3CCCN3)[C@H](O)C2)ncc1OC(F)F)c1ccc(Cl)cc1Cl` [Example 1.118], the pIC50 is above 7.00.
Same read-out and setting: the value for `CC(C)N1CCCC(C2CCN(c3ncc(Cl)c(N[C@H](C)c4ccc(Cl)cc4Cl)n3)CC2)C1` (some centres unmarked) [Example 1.214] was above 7.00; that for `C[C@@H](Nc1nc(N2CCN(C(=O)[C@H]3CCCN3Cc3nnn[nH]3)CC2)ncc1Cl)c1ccc(Cl)cc1Cl` [Example 1.139] was above 7.00; that for `C[C@@H](Nc1nc(N2CCN(C(=O)[C@@H]3CNCCO3)CC2)ncc1Cl)c1ccc(Cl)cc1Cl` [Example 1.145] was above 7.00.
For `Cc1cc(Cl)ccc1[C@@H](C)Nc1nc(N2CCN(C(=O)[C@H]3CCC(=O)N3)CC2)ncc1Cl` [Example 1.088], the pIC50 is 6.00 to 7.00.
With `C[C@@H](Nc1nc(N2CCN(C(=O)[C@H]3CCCN3)CC2)ncc1N)c1ccc(Cl)cc1Cl` [Example 1.094], the pIC50 was above 7.00.
For `C[C@@H](Nc1nc(N2CCN(C(=O)C3(C)CCN(C)C3)CC2)ncc1Cl)c1ccc(Cl)cc1Cl` (some centres unmarked) [Example 1.231], the pIC50 is above 7.00.
On to `C[C@H]1CC[C@H](C(=O)N2CCN(c3ncc(Cl)c(N[C@H](C)c4ccc(Cl)cc4Cl)n3)CC2)N1` [Example 1.204], for which the pIC50 is above 7.00.
The same measure, in the same setting: the value for `C[C@@H](Nc1nc(N2CCN(C(=O)[C@H]3CCC(=O)N3)CC2)ncc1Cl)c1c(F)cc(Cl)cc1Cl` [Example 1.198] was above 7.00; that for `COc1nc(N2CCN(C(=O)[C@H]3CCCN3)CC2)nc(N[C@H](C)c2ccc(Cl)cc2Cl)c1Cl` [Example 1.175] was above 7.00; that for `C[C@@H](Nc1nc(N2CC[C@H](NC(=O)[C@H]3CCN(C)C3)[C@@H](O)C2)ncc1Cl)c1ccc(Cl)cc1Cl` [Example 1.206] was above 7.00.
Consider `C[C@@H](Nc1nc(N2CCC(NC(=O)[C@H]3CN(C)C(=O)N3)CC2)ncc1Cl)c1ccc(Cl)cc1Cl` [Example 1.223], for which the pIC50 is below 6.00.
With `C[C@@H](Nc1nc(N2CC[C@H](NC(=O)[C@H]3CCCN3)[C@H](O)C2)ncc1OC(F)F)c1ccc(Cl)cc1Cl` [Example 1.120], the negative logarithm of the IC50 (pIC50) was above 7.00.
With `C[C@@H](Nc1nc(N2CCN(C(=O)[C@H]3C[C@@H](F)CN3)CC2)ncc1Cl)c1ccc(Cl)cc1Cl` [Example 1.140], the pIC50 was above 7.00.
Turning to `C[C@@H](Nc1nc(N2CCN(C(=O)C3CNC(=O)CN3)CC2)ncc1Cl)c1ccc(Cl)cc1Cl` (some centres unmarked) [Example 1.209], the pIC50 was 6.00 to 7.00.
`C[C@@H]1CC[C@H](C(=O)N2CCN(c3ncc(Cl)c(N[C@H](C)c4ccc(Cl)cc4Cl)n3)CC2)N1` [Example 1.247]: the negative-log IC50 (pIC50) was above 7.00.
In the case of `C[C@@H](Nc1nc(N2CCN(C(=O)[C@H](N)CO)CC2)ncc1Cl)c1ccc(Cl)cc1Cl` [Example 1.213], the pIC50 was 6.00 to 7.00.
Take `C[C@@H](Nc1nc(N2CCN(C(=O)C3(N)CCOCC3)CC2)ncc1Cl)c1ccc(Cl)cc1Cl` [Example 1.205]: the pIC50 was 6.00 to 7.00.
Turning to `CCOc1cnc(N2CCN(C(=O)[C@H]3CCN(C)C3)CC2)nc1N[C@H](C)c1ccc(Cl)cc1Cl` [Example 1.184], the pIC50 is above 7.00.
As for `COc1cnc(N2CCN(C(=O)C3CCN(C)CC3)CC2)nc1N[C@H](C)c1ccc(Cl)cc1Cl` [Example 1.165], the pIC50 is above 7.00.
Take `C[C@@H](Nc1ccnc(N2CCN(C(=O)[C@H]3CCCN3)CC2)n1)c1ccc(Cl)cc1Cl` [Example 1.115]: the pIC50 is above 7.00.
In the case of `C[C@@H](Nc1nc(N2CCN(C(=O)[C@H]3COC(=O)N3)CC2)ncc1Cl)c1ccc(Cl)cc1Cl` [Example 1.122], the pIC50 was above 7.00.
As to `COc1cnc(N2CCC(N(C)C(=O)[C@H]3CCCN3)CC2)nc1N[C@H](C)c1ccc(Cl)cc1Cl` [Example 1.170], the pIC50 is above 7.00.
For `C[C@@H](Nc1nc(N2CC[C@H](NC(=O)[C@H]3CCC(=O)N3)[C@H](O)C2)ncc1F)c1ccc(Cl)cc1Cl` [Example 1.091], the negative-log IC50 (pIC50) was below 6.00.
Take `COCc1cnc(N2CCN(C(=O)[C@H]3CCCN3)CC2)nc1N[C@H](C)c1ccc(Cl)cc1Cl` [Example 1.101]: the pIC50 is above 7.00.
As to `C[C@@H](Nc1nc(N2CCN(C(=O)C[C@@H]3CCCN3C)CC2)ncc1Cl)c1ccc(Cl)cc1Cl` [Example 1.169], the pIC50 is above 7.00.
As to `C[C@@H](Nc1nc(N2CCN(C(=O)[C@H]3C[C@H](F)CN3)CC2)ncc1Cl)c1ccc(Cl)cc1Cl` [Example 1.142], the pIC50 was above 7.00.
Same read-out and setting: the value for `C[C@@H](Nc1nc(N2CCN(C(=O)C[C@H]3CCC(=O)N3)CC2)ncc1Cl)c1ccc(Cl)cc1Cl` [Example 1.234] was 6.00 to 7.00; that for `C[C@@H](Nc1nc(N2CCC(OC3CNC3)CC2)ncc1Cl)c1ccc(Cl)cc1Cl` [Example 1.199] was 6.00 to 7.00; that for `C[C@@H](Nc1nc(N2CCN(C(=O)CCN3CCOCC3)CC2)ncc1Cl)c1ccc(Cl)cc1Cl` [Example 1.196] was 6.00 to 7.00.
`COc1cnc(N2CC[C@H](NC(=O)[C@H]3CCCN3)[C@@H](O)C2)nc1N[C@H](C)c1ccc(Cl)cc1Cl` [Example 1.179]: the pIC50 is above 7.00.
Same read-out and setting: the value for `COc1cnc(N2CCC(NC(=O)[C@H]3CCCN3)CC2)nc1N[C@H](C)c1ccc(Cl)cc1Cl` [Example 1.176] was above 7.00.
Take `C[C@@H](Nc1nc(N2CCN(C(=O)[C@H]3CN(C)C(=O)N3)CC2)ncc1F)c1ccc(Cl)cc1Cl` [Example 1.103]: the pIC50 was above 7.00.
The same measure, in the same setting: in the case of `C[C@@H](Nc1nc(N2CCN(C(=O)[C@H]3CCN(C)C3)CC2)ncc1C(C)(C)O)c1ccc(Cl)cc1Cl` [Example 1.154] it was 6.00 to 7.00; in that of `COc1cnc(N2CCN(C(=O)[C@H]3CC[C@@H](C)N3)CC2)nc1N[C@H](C)c1ccc(Cl)cc1Cl` [Example 1.173], above 7.00.
In the case of `C[C@@H](Nc1nc(N2CC[C@H](NC(=O)CCN(C)C)[C@@H](O)C2)ncc1Cl)c1ccc(Cl)cc1Cl` [Example 1.245], the pIC50 was above 7.00.
Take `C[C@@H](Nc1nc(N2CC[C@H](NC(=O)[C@H]3CCCN3)[C@@H](O)C2)ncc1OC(F)F)c1ccc(Cl)cc1Cl` [Example 1.155]: the negative logarithm of the IC50 (pIC50) is above 7.00.
The same measure, in the same setting: in the case of `CCOc1cnc(N2CCN(C(=O)[C@H]3CCC(=O)N3)CC2)nc1N[C@H](C)c1ccc(Cl)cc1Cl` [Example 1.182] it was above 7.00.
Take `C[C@@H](Nc1nc(N2CC[C@H](NC(=O)[C@H]3CCC(=O)N3)[C@@H](F)C2)ncc1Cl)c1ccc(Cl)cc1Cl` [Example 1.106]: the pIC50 was 6.00 to 7.00.
Turning to `C[C@@H](Nc1nc(N2CCC(NC(=O)[C@H]3C[C@H](F)CN3)CC2)ncc1Cl)c1ccc(Cl)cc1Cl` [Example 1.137], the negative-log IC50 (pIC50) was 6.00 to 7.00.
For the molecule `C[C@@H](Nc1nc(N2CCC(OC3CCN(C)C3)CC2)ncc1Cl)c1ccc(Cl)cc1Cl` (some centres unmarked) [Example 1.241], the pIC50 is above 7.00.
With `C[C@@H](Nc1nc(N2CC[C@H](NC(=O)[C@H]3CCC(=O)N3)[C@@H](O)C2)ncc1F)c1ccc(Cl)cc1Cl` [Example 1.100], the negative-log IC50 (pIC50) is below 6.00.
With `C[C@@H](Nc1nc(N2CCN(C(=O)C3CNC(=O)C3)CC2)ncc1Cl)c1ccc(Cl)cc1Cl` (some centres unmarked) [Example 1.147], the pIC50 is above 7.00.
Take `C[C@@H](Nc1nc(N2CCN(C(=O)[C@H]3CCC(=O)N3)CC2)ncc1Cl)c1cc(F)c(Cl)cc1Cl` [Example 1.202]: the negative logarithm of the IC50 (pIC50) is above 7.00.
Consider `C[C@@H](Nc1nc(N2CCN(C(=O)[C@H]3CCC(=O)N3)CC2)ncc1F)c1ccc(Cl)cc1F` [Example 1.086], for which the pIC50 is above 7.00.
On to `Cc1nc(N2CCN(C(=O)[C@H]3CN(C)C(=O)N3)CC2)nc(N[C@H](C)c2ccc(Cl)cc2Cl)c1Cl` [Example 1.097], for which the pIC50 is above 7.00.
Turning to `COc1cnc(N2CCN(C(=O)[C@H]3CCNC3)CC2)nc1N[C@H](C)c1ccc(Cl)cc1Cl` [Example 1.163], the “Serum IC50 (FBS)” value was “+ ++”.
On to `C[C@@H](Nc1nc(N2CCN(C(=O)[C@@]3(C)CCC(=O)N3)CC2)ncc1Cl)c1ccc(Cl)cc1Cl` [Example 1.244], for which the pIC50 was below 6.00.
As for `C[C@@H](Nc1nc(N2CC[C@H](NC(=O)[C@H]3COCCN3)[C@@H](O)C2)ncc1Cl)c1ccc(Cl)cc1Cl` [Example 1.125], the pIC50 is 6.00 to 7.00.
Take `C[C@H]1CC[C@H](C(=O)N[C@H]2CCN(c3ncc(Cl)c(N[C@H](C)c4ccc(Cl)cc4Cl)n3)C[C@@H]2F)N1` [Example 1.087]: the pIC50 was above 7.00.
Still for that read-out and setting: in the case of `C[C@@H](Nc1nc(N2CCN(C(=O)C3CCCC(=O)N3)CC2)ncc1Cl)c1ccc(Cl)cc1Cl` (some centres unmarked) [Example 1.240] it was above 7.00.
As to `CCOc1cnc(N2CCN(C(=O)[C@H]3CCCN3)CC2)nc1N[C@H](C)c1ccc(Cl)cc1Cl` [Example 1.181], the negative logarithm of the IC50 (pIC50) is above 7.00.
